Consider 13 molecules from ChEMBL document CHEMBL1201862, “PubChem BioAssay data set” (2004).

By GI50 is commonly meant the concentration giving 50% growth inhibition.

Some test systems named below: MDA-MB-435; 786-0; SF-268; UACC-62; OVCAR-4; LOX IMVI; A549; OVCAR-5; DU-145; SK-OV-3; SF-295; PC-3; KM12; HCT-15; BT-549; HT-29.
Common to all, as to experiment: DTP human tumour cell line panel, 48 h

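Assay format: 96-well plates, 48-hour exposure. GI50 = concentration required for 50% inhibition of growth.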 Active and inactive are the calls of the source. Cut-off read from the data, not from the text of the source: active = GI50 up to about 1.1 µM and inactive = higher. Some results are limits rather than exact numbers.

Consider `C[C@]12CC[C@H]3[C@@H](CCC4=C(Br)C(=O)C=C[C@@]43O)[C@@H]1CCC2=O`, for which the GI50 is 33.7 µM (inactive) in the assay on MDA-MB-435; 24.9 µM (inactive) in the assay with 786-0; 45.7 µM (inactive) with SF-268; 32.4 µM (inactive) in the assay with UACC-62; 33.3 µM (inactive) with OVCAR-4; 32.3 µM (inactive) in the assay with LOX IMVI. The GI50 is 59.7 µM (inactive) in the assay on A549; 61 µM (inactive) in the assay with OVCAR-5; 20.9 µM (inactive) in the assay on DU-145; > 100 µM (inactive) in the assay with SK-OV-3; 74.1 µM (inactive) with SF-295; 37.8 µM (inactive) in the assay on PC-3. Moreover, the GI50 in the assay on KM12 was 34.2 µM (inactive); in the assay with HCT-15, 15.6 µM; in the assay with BT-549 it was 20.7 µM (inactive); with HT-29 it was 36 µM (inactive).

Take `CC(C)Cc1c(C#N)c(C#N)c(N)n1Cc1ccccc1`: the GI50 was > 100 µM (inactive) in the assay with MDA-MB-435; > 100 µM (inactive) with 786-0; > 100 µM (inactive) in the assay on SF-268; 55.5 µM (inactive) in the assay on UACC-62; > 100 µM (inactive) with OVCAR-4; > 100 µM (inactive) in the assay on LOX IMVI. In addition, the GI50 with A549, with OVCAR-5, in the assay on DU-145, in the assay on SK-OV-3, in the assay on SF-295 and in the assay on PC-3 was > 100 µM (inactive) in each case. Also, the GI50 was > 100 µM (inactive) with KM12, over 100 µM in the assay with HCT-15, > 100 µM (inactive) in the assay on BT-549 and > 100 µM (inactive) in the assay with HT-29.

Consider `O/N=C1\Nc2ccccc2OCc2cc(Br)c(Br)cc2COc2ccccc2N\C1=N/O`, for which the GI50 in the assay with MDA-MB-435 is 14.8 µM (inactive); in the assay with 786-0, 10 µM (inactive); in the assay with SF-268, 8.91 µM (inactive); with UACC-62 it was 15.3 µM (inactive); in the assay with OVCAR-4 it was 10.7 µM (inactive); in the assay on LOX IMVI, 10.1 µM (inactive). Besides, the GI50 in the assay on A549 is 17.6 µM (inactive); in the assay with OVCAR-5, 17.9 µM (inactive); in the assay with DU-145 it was 13.6 µM (inactive); in the assay on SK-OV-3 it was 17.2 µM (inactive); with SF-295, 16.5 µM (inactive); in the assay on PC-3, 13.4 µM (inactive). The GI50 was 8.51 µM (inactive) with KM12, 5.86 µM in the assay with HCT-15, 15.1 µM (inactive) with BT-549 and 7.85 µM (inactive) with HT-29.

Consider `CCC[C@H](O)[C@@H](CNc1cc(NC(C)=O)nc(NC(C)=O)n1)N(Cc1ccccc1)Cc1ccccc1`, for which the GI50 in the assay with MDA-MB-435 was 54 µM (inactive); with 786-0 it was 17.7 µM (inactive); in the assay on UACC-62, 18.3 µM (inactive); with OVCAR-4 it was 15.7 µM (inactive); in the assay with LOX IMVI it was 27.9 µM (inactive); in the assay on A549, 13.2 µM (inactive). Moreover, the GI50 with OVCAR-5 is 27.9 µM (inactive); in the assay with DU-145 it was 61.9 µM (inactive); with SK-OV-3, 19.8 µM (inactive); in the assay with SF-295 it was 6.44 µM (inactive); in the assay on PC-3, 13.5 µM (inactive); in the assay with KM12, 11.1 µM (inactive). For the same molecule, the 50% growth inhibitory concentration (GI50) in the assay with HCT-15 was 31.7 µM; in the assay on BT-549, 16.1 µM (inactive).

As to `COC1=C(OC)C(=O)C(Cc2c(-c3ccccc3)nc3sc(Cl)cn23)=C(C)C1=O`, the GI50 in the assay with MDA-MB-435 is 16.5 µM (inactive); in the assay on 786-0 it was 19.6 µM (inactive); in the assay on SF-268, 18.8 µM (inactive); with UACC-62, 11.9 µM (inactive); in the assay on OVCAR-4, 3.61 µM (inactive); with LOX IMVI, 23.7 µM (inactive). Besides, the GI50 in the assay on A549 was 21.7 µM (inactive); in the assay with OVCAR-5, 28.2 µM (inactive); in the assay with DU-145, 20 µM (inactive); in the assay with SK-OV-3, 18.5 µM (inactive); in the assay on SF-295 it was 17 µM (inactive); in the assay on PC-3 it was 16.6 µM (inactive). Further, the GI50 with KM12 was 17 µM (inactive); in the assay with HCT-15 it was 14.5 µM; with BT-549, 15.7 µM (inactive); in the assay with HT-29, 20.1 µM (inactive).

On to `CC(C)(CO[C@H]1C[C@H]2CC[C@@]1(C)C2(C)C)[N+](=O)[O-]`, for which the GI50 was 18.8 µM (inactive) in the assay on MDA-MB-435; 14.3 µM (inactive) with 786-0; 33 µM (inactive) in the assay on SF-268; 19.9 µM (inactive) with UACC-62; 30.3 µM (inactive) in the assay on OVCAR-4; 18.1 µM (inactive) with LOX IMVI. The GI50 with A549 is 25.5 µM (inactive); in the assay on OVCAR-5 it was 16.8 µM (inactive); in the assay with DU-145, 17.3 µM (inactive); in the assay with SK-OV-3, 29.1 µM (inactive); in the assay with SF-295 it was 18.6 µM (inactive); in the assay on PC-3 it was 20.9 µM (inactive). Besides, the GI50 is 17.4 µM (inactive) in the assay on KM12, 22.6 µM with HCT-15, 21.5 µM (inactive) with BT-549 and 13 µM (inactive) in the assay on HT-29.

As for `C[C@]12CCC3c4ccc(O)cc4CC[C@H]3C1CC(=O)N(CCN1CCCC1)C2=O` (stereo partly specified), the GI50 in the assay with MDA-MB-435, in the assay with 786-0, with SF-268, in the assay with UACC-62, in the assay with OVCAR-4 and with LOX IMVI was > 10 µM (inactive) in each case. Also, the GI50 in the assay with A549, in the assay with OVCAR-5, with DU-145, in the assay with SK-OV-3, with SF-295 and in the assay with PC-3 was > 10 µM (inactive) each time. Also, the GI50 in the assay with KM12 is > 10 µM (inactive); in the assay on HCT-15, over 10 µM; with BT-549, > 10 µM (inactive); with HT-29, > 10 µM (inactive).

`CC(C)CC(=O)NC(Nc1ccc(S(=O)(=O)Nc2ncccn2)cc1)(C(F)(F)F)C(F)(F)F`: the GI50 in the assay with MDA-MB-435, in the assay with 786-0, in the assay on SF-268, with UACC-62, in the assay with OVCAR-4 and in the assay with LOX IMVI was > 100 µM (inactive) in each case. The GI50 with A549, in the assay with OVCAR-5, with DU-145, with SK-OV-3, with SF-295 and in the assay on PC-3 was > 100 µM (inactive) in each case. The GI50 was > 100 µM (inactive) in the assay on KM12, over 100 µM with HCT-15, > 100 µM (inactive) with BT-549 and > 100 µM (inactive) with HT-29.

`CCOC(=O)NNC(=O)NCCNC(=O)NNC(=O)OCC`: the GI50 with MDA-MB-435, with 786-0, with SF-268, in the assay with UACC-62, in the assay on OVCAR-4 and with LOX IMVI was > 100 µM (inactive) in each case. For the same molecule, the GI50 in the assay with A549 is > 100 µM (inactive); with OVCAR-5, 69.3 µM (inactive); in the assay on DU-145 it was > 100 µM (inactive); in the assay with SK-OV-3 it was > 100 µM (inactive); in the assay with PC-3, > 100 µM (inactive); in the assay with KM12, > 100 µM (inactive). In addition, the GI50 with HCT-15 was over 100 µM; in the assay with BT-549, > 100 µM (inactive); in the assay on HT-29 it was > 100 µM (inactive).

On to `CCC1(CC)C(=O)OC(=O)C1(CC)CC`, for which the GI50 in the assay on MDA-MB-435, in the assay on 786-0, in the assay on SF-268, in the assay with UACC-62, with OVCAR-4 and in the assay with LOX IMVI was > 100 µM (inactive) in each case. Also, the GI50 in the assay with A549, with DU-145, with SK-OV-3, in the assay with SF-295, in the assay with PC-3 and in the assay with KM12 was > 100 µM (inactive) throughout. The GI50 in the assay with HCT-15 is over 100 µM; in the assay with BT-549, > 100 µM (inactive); in the assay with HT-29 it was > 100 µM (inactive).

With `COc1cc2cc(C(=O)N3CC(CCl)c4c3cc(NCCN)c3ccccc43)[nH]c2c(OC)c1OC` (stereo unspecified), the GI50 was < 0.01 µM (active) with MDA-MB-435; < 0.01 µM (active) with 786-0; < 0.01 µM (active) with SF-268; < 0.01 µM (active) in the assay with UACC-62; 0.0116 µM (active) with OVCAR-4; < 0.01 µM (active) in the assay with LOX IMVI. The GI50 is < 0.01 µM (active) in the assay with A549; < 0.01 µM (active) in the assay with OVCAR-5; < 0.01 µM (active) in the assay on DU-145; < 0.0189 µM (active) in the assay with SK-OV-3; < 0.01 µM (active) in the assay on SF-295; < 0.01 µM (active) in the assay with PC-3. Further, the figures for the GI50 in the assay with KM12, in the assay on HCT-15 and in the assay with BT-549 were < 0.01 µM (active), 0.0105 µM and 0.0333 µM (active), respectively.

`COc1ccc(CSC2=C(C#N)C(=O)NC3(CCCCC3)S2)cc1`: the GI50 in the assay with MDA-MB-435 is 19 µM (inactive); with 786-0, 64.1 µM (inactive); in the assay on SF-268, 47.1 µM (inactive); in the assay on UACC-62, 61.4 µM (inactive); in the assay with OVCAR-4 it was 36.6 µM (inactive); in the assay on LOX IMVI it was 30.1 µM (inactive). For the same molecule, the GI50 is > 83.8 µM (inactive) with A549; > 100 µM (inactive) with OVCAR-5; > 85.7 µM (inactive) in the assay with DU-145; 44.7 µM (inactive) in the assay with SK-OV-3; 51.6 µM (inactive) in the assay on SF-295; 74.8 µM (inactive) in the assay with PC-3. Moreover, the GI50 with HCT-15 was 57.8 µM; in the assay on BT-549, 48.2 µM (inactive); in the assay with HT-29, 38.1 µM (inactive).

In the case of `Clc1ccc(/C=C/c2nc(-c3ccc(Cl)cc3)cn3c2nc2ccccc23)cc1`, the GI50 with MDA-MB-435, in the assay with 786-0, with SF-268, in the assay on UACC-62, in the assay with OVCAR-4 and in the assay on LOX IMVI was > 100 µM (inactive) throughout. For the same molecule, the GI50 in the assay with A549, in the assay with OVCAR-5, with DU-145, in the assay on SK-OV-3, with PC-3 and in the assay with KM12 was > 100 µM (inactive) in each case. In addition, the concentration for 50% growth inhibition (GI50) is over 100 µM in the assay with HCT-15, > 100 µM (inactive) with BT-549 and > 100 µM (inactive) with HT-29.
